Reference: patent publication US12180176B2, “Fluorinated empathogens” (priority 2021, dated 2024)

What was measured:
[1] = human psychoactivity, literature; cited from earlier work
SERT = SERT (Homo sapiens, UniProt P31645); conditions: functional assay; cited from earlier work
[2] = Metabolic stability in human liver microsomes; type: in vitro ADME
Source text: Purpose: To determine the metabolic stability of a disclosed compound relative to its corresponding non-fluorinated analog. Metabolic stability assays measure the intrinsic clearance (CLint) of a compound, providing critical data needed to calculate other key pharmacokinetic parameters such as bioavailability and half-life (t1/2).
Methods: A high-throughput assay was used to determine metabolic stability of disclosed compounds and non-fluorinated analogs thereof in human liver microsomes. LC/MS analysis was used to quantify the percent compound remaining after incubation. The half-life (t1/2) was estimated from the slope of the initial linear range of the logarithmic curve of compound remaining (%) versus time, assuming first order kinetics.

Sequence of SERT (P31645 whole entry, species assumed): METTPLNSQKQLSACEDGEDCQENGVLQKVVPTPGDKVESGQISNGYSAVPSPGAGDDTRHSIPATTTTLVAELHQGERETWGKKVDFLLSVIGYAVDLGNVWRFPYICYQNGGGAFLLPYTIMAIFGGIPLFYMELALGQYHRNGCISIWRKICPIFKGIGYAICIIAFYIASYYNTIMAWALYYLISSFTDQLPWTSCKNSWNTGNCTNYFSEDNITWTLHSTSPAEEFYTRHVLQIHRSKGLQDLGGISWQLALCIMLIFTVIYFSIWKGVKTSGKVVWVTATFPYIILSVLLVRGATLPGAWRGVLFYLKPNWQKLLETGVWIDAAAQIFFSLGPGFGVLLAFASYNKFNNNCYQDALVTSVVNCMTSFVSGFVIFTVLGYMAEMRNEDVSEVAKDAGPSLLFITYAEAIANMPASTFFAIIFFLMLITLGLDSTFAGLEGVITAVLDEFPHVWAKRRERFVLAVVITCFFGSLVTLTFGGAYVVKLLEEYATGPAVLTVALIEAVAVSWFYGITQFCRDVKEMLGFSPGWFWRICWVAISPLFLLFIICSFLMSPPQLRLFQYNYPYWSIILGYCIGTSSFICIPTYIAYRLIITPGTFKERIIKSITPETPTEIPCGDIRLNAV

## CC(N)Cc1ccc2c(c1)OC(F)(F)O2 (centres unmarked) [DiFMDA, Difluoromethylenedioxyamphetamine]
[1]
  active dose in humans: > 250 mg
SERT
  SERT affinity: between that of MDA and MDMA

## CC(N)Cc1ccc2c(c1)OCO2 (centres unmarked) [MDA, 3,4-methylenedioxyamphetamine]
[1]
  active dose in humans: 80 to 160 mg

## CC(Cc1ccc2c(c1)OCO2)NCCF.Cl (centres unmarked) [MDEA-F]
[2]; Time 0.0
  percent compound remaining: 100.0%
[2]; Time 15.00
  percent compound remaining: 81.80%
[2]; Time 30.00
  percent compound remaining: 68.75%
[2]; Time 45.00
  percent compound remaining: 65.35%
[2]; Time 60.00 (one hour of incubation), listed as ASR-1004
  percent compound remaining: 42.05%
[2]; Time 60.00 (one hour of incubation), listed as MIDEA-F
  percent compound remaining: 42%
[2]; estimated from slope of log % remaining versus time
  half-life (t1/2): about 57 minutes

## CC(Cc1ccc2c(c1)OCO2)NCC(F)(F)F (centres unmarked) [MDTFEA, 3,4-methylenedioxy-N-trifluoroethylamphetamine]
[1]
  active dose in humans: > 500 mg
